Literature values in patent publication US10029078B2, “Pancreas perfusion apparatus, method for controlling same, and method for pancreas perfusion” (KOSEI ADVANCE CO., LTD., priority 2013, dated 2018).

Tested on: unresectable pancreatic cancer
Conditions: patients with unresectable pancreatic cancer, systemic chemotherapy

## Nc1ccn([C@@H]2O[C@H](CO)[C@@H](O)C2(F)F)c(=O)n1 [gemcitabine]
  median survival time: approximately 6 months
  response rate: approximately 10%
